Assays:
Assay type in all cases: in vivo
[1] = system: barnyardgrass (Echinochloa crusgalli); assay: Test D flooded paddy test, barnyardgrass; design: key: 0 = no effect, 100 = complete control; details: 250 g ai/ha, Flood; applied to paddy water at 2-leaf stage; visual rating after 13 days; scale 0 (no effect) to 100 (complete control)
Description: (§1) Plant species in the flooded paddy test selected from barnyardgrass (Echinochloa crusgalli), ducksalad (Heteranthera limosa), rice (Oryza sativa), and sedge, umbrella (small-flower umbrella sedge, Cyperus difformis) were grown to the 2-leaf stage for testing. At time of treatment, test pots were flooded to 3 cm above the soil surface, treated by application of test compounds directly to the paddy water, and then maintained at that water depth for the duration of the test. Treated plants and controls were maintained in a greenhouse for 13 days, after which time all species were compared to controls and visually evaluated. Plant response ratings, summarized in Table B, are based on a scale of 0 to 100 where 0 is no effect and 100 is complete control. A dash (-) response means no test result.

[2] = system: ryegrass, Italian (Italian ryegrass, Lolium multiflorum); assay: Test C preemergence, Italian ryegrass; details: 0 is no effect, 100 is complete control
From the text: (§2) Seeds of plant species selected from blackgrass (Alopecurus myosuroides), corn (Zea mays), foxtail, giant (giant foxtail, Setaria faberi), goosegrass (Eleusine indica), kochia (Bassia scoparia), oat, wild (wild oat, Avena fatua), pigweed, palmer (palmer amaranth, Amaranthus palmeri), ragweed (common ragweed, Ambrosia artemisiifolia), ryegrass, Italian (Italian ryegrass, Lolium multiflorum), soybean (Glycine max) and wheat (Triticum aestivum) were planted into a blend of loam soil and sand and treated preemergence with a directed soil spray using test chemicals formulated in a non-phytotoxic solvent mixture which included a surfactant.
(§3) At the same time, plants selected from these crop and weed species and also galium (catchweed bedstraw, Galium aparine) and horseweed (Erigeron canadensis) were planted in pots containing the same blend of loam soil and sand and treated with postemergence applications of test chemicals formulated in the same manner. Plants ranged in height from 2 to 10 cm and were in the one- to two-leaf stage for the postemergence treatment. Treated plants and untreated controls were maintained in a greenhouse for 10 or 12 days, after which time all treated plants were compared to untreated controls and visually evaluated for injury. Plant response ratings, summarized in Table A, are based on a 0 to 100 scale where 0 is no effect and 100 is complete control. A dash (-) response means no test result.

[3] = system: sedge, umbrella (small-flower umbrella sedge, Cyperus difformis); assay: Test D flooded paddy test, umbrella sedge; design: key: 0 = no effect, 100 = complete control; details: 250 g ai/ha, Flood; applied to paddy water at 2-leaf stage; visual rating after 13 days; scale 0 (no effect) to 100 (complete control)
Description: as §1

[4] = system: oat, wild (wild oat, Avena fatua); assay: Test C postemergence, wild oat
From the text: as §2, §3

[5] = system: kochia (Bassia scoparia); assay: Test C postemergence, kochia
From the text: as §2, §3

[6] = system: kochia (Bassia scoparia); assay: Test C preemergence, kochia; details: 0 is no effect, 100 is complete control
From the text: as §2, §3

[7] = system: soybean (Glycine max); assay: Test C postemergence, soybean
From the text: as §2, §3

[8] = system: blackgrass (Alopecurus myosuroides); assay: Test C preemergence, blackgrass; details: 0 is no effect, 100 is complete control
From the text: as §2, §3

[9] = system: wheat (Triticum aestivum); assay: Test C postemergence, wheat
From the text: as §2, §3

[10] = system: pigweed, palmer (palmer amaranth, Amaranthus palmeri); assay: Test C preemergence, palmer amaranth; details: 0 is no effect, 100 is complete control
From the text: as §2, §3

[11] = system: foxtail, giant (giant foxtail, Setaria faberi); assay: Test C preemergence, giant foxtail; details: 0 is no effect, 100 is complete control
From the text: as §2, §3

[12] = system: corn (Zea mays); assay: Test C preemergence, corn; details: 0 is no effect, 100 is complete control
From the text: as §2, §3

[13] = system: rice (Oryza sativa); assay: Test D flooded paddy test, rice; design: key: 0 = no effect, 100 = complete control; details: 250 g ai/ha, Flood; applied to paddy water at 2-leaf stage; visual rating after 13 days; scale 0 (no effect) to 100 (complete control)
Description: as §1

[14] = system: ragweed (common ragweed, Ambrosia artemisiifolia); assay: Test C postemergence, ragweed
From the text: as §2, §3

[15] = system: ragweed (common ragweed, Ambrosia artemisiifolia); assay: Test C preemergence, ragweed; details: 0 is no effect, 100 is complete control
From the text: as §2, §3

[16] = system: goosegrass (Eleusine indica); assay: Test C preemergence, goosegrass; details: 0 is no effect, 100 is complete control
From the text: as §2, §3

[17] = system: wheat (Triticum aestivum); assay: Test C preemergence, wheat; details: 0 is no effect, 100 is complete control
From the text: as §2, §3

[18] = system: foxtail, giant (giant foxtail, Setaria faberi); assay: Test C postemergence, giant foxtail
From the text: as §2, §3

[19] = system: pigweed, palmer (palmer amaranth, Amaranthus palmeri); assay: Test C postemergence, palmer amaranth
From the text: as §2, §3

[20] = system: galium (catchweed bedstraw, Galium aparine); assay: Test C postemergence, galium
From the text: as §2, §3

[21] = system: ryegrass, Italian (Italian ryegrass, Lolium multiflorum); assay: Test C postemergence, Italian ryegrass
From the text: as §2, §3

[22] = system: goosegrass (Eleusine indica); assay: Test C postemergence, goosegrass
From the text: as §2, §3

[23] = system: horseweed (Erigeron canadensis); assay: Test C postemergence, horseweed
From the text: as §2, §3

[24] = system: corn (Zea mays); assay: Test C postemergence, corn
From the text: as §2, §3

[25] = system: blackgrass (Alopecurus myosuroides); assay: Test C postemergence, blackgrass; details: 31 g ai/ha Postemergence; visual injury, 0 to 100 scale (0 no effect, 100 complete control)
From the text: as §2, §3

[26] = system: ducksalad (Heteranthera limosa); assay: Test D flooded paddy test, ducksalad; design: key: 0 = no effect, 100 = complete control; details: 250 g ai/ha, Flood; applied to paddy water at 2-leaf stage; visual rating after 13 days; scale 0 (no effect) to 100 (complete control)
Description: as §1

[27] = system: blackgrass (Alopecurus myosuroides); assay: Test C postemergence, blackgrass; details: 125 g ai/ha Postemergence; 0 is no effect, 100 is complete control
[28] = system: oat, wild (wild oat, Avena fatua); assay: Test C preemergence, wild oat; details: 0 is no effect, 100 is complete control
From the text: as §2, §3

[29] = system: soybean (Glycine max); assay: Test C preemergence, soybean; details: 0 is no effect, 100 is complete control
From the text: as §2, §3

[30] = 31 g ai/ha Postemergence, visual injury, 0 to 100 scale (0 no effect, 100 complete control)
[31] = 125 g ai/ha Postemergence, 0 is no effect, 100 is complete control

In the case of `Cc1cc(C)c(N(C(=O)OC(C)C)S(=O)(=O)C(F)(F)F)cc1N1CCC(OC2CC2)C1=O` (stereo not shown) [Compound 18], the “Plant response rating, Barnyardgrass” value [1] is reported as 0, the “Plant response rating (0 to 100 scale), Ryegrass, Italian” value ([2]; 31 g ai/ha Preemergence) is reported as 0 and the “Plant response rating (0 to 100 scale), Ryegrass, Italian” value ([2]; 125 g ai/ha Preemergence) is reported as 0. For the same molecule, the “Plant response rating, Sedge, Umbrella” value [3] was 0, the “Oat, Wild plant response rating” value [4, 30] was 0 and the “Plant response rating (0 to 100 scale), Oat, Wild” value [4, 31] was 0. For the same molecule, the “Kochia plant response rating” value [5, 30] was 20, the “Plant response rating (0 to 100 scale), Kochia” value [5, 31] was 70 and the “Plant response rating (0 to 100 scale), Kochia” value ([6]; 31 g ai/ha Preemergence) was 0. The “Plant response rating (0 to 100 scale), Kochia” value ([6]; 125 g ai/ha Preemergence) was 60, the “Soybean plant response rating” value [7, 30] was 50 and the “Plant response rating (0 to 100 scale), Soybean” value [7, 31] was 80. For the same molecule, the “Plant response rating (0 to 100 scale), Blackgrass” value ([8]; 31 g ai/ha Preemergence) was 0, the “Plant response rating (0 to 100 scale), Blackgrass” value ([8]; 125 g ai/ha Preemergence) was 0 and the “Wheat plant response rating” value [9, 30] was 0. For the same molecule, the “Plant response rating (0 to 100 scale), Wheat” value [9, 31] was 0, the “Plant response rating (0 to 100 scale), Pigweed, Palmer” value ([10]; 31 g ai/ha Preemergence) was 0 and the “Plant response rating (0 to 100 scale), Pigweed, Palmer” value ([10]; 125 g ai/ha Preemergence) was 20. The “Plant response rating (0 to 100 scale), Foxtail, Giant” value ([11]; 31 g ai/ha Preemergence) was 0, the “Plant response rating (0 to 100 scale), Foxtail, Giant” value ([11]; 125 g ai/ha Preemergence) was 0 and the “Plant response rating (0 to 100 scale), Corn” value ([12]; 31 g ai/ha Preemergence) was 0. The “Plant response rating (0 to 100 scale), Corn” value ([12]; 125 g ai/ha Preemergence) was 0, the “Plant response rating, Rice” value [13] was 0 and the “Ragweed plant response rating” value [14, 30] was 0. The “Plant response rating (0 to 100 scale), Ragweed” value [14, 31] was 50, the “Plant response rating (0 to 100 scale), Ragweed” value ([15]; 31 g ai/ha Preemergence) was 0 and the “Plant response rating (0 to 100 scale), Ragweed” value ([15]; 125 g ai/ha Preemergence) was 0. For the same molecule, the “Plant response rating (0 to 100 scale), Goosegrass” value ([16]; 31 g ai/ha Preemergence) was 0, the “Plant response rating (0 to 100 scale), Goosegrass” value ([16]; 125 g ai/ha Preemergence) was 0 and the “Plant response rating (0 to 100 scale), Wheat” value ([17]; 31 g ai/ha Preemergence) was 0. For the same molecule, the “Plant response rating (0 to 100 scale), Wheat” value ([17]; 125 g ai/ha Preemergence) was 0, the “Foxtail, Giant plant response rating” value [18, 30] was 0 and the “Plant response rating (0 to 100 scale), Foxtail, Giant” value [18, 31] was 0. For the same molecule, the “Pigweed, Palmer plant response rating” value [19, 30] was 0, the “Plant response rating (0 to 100 scale), Pigweed, Palmer” value [19, 31] was 20 and the “Galium plant response rating” value [20, 30] was 10. The “Plant response rating (0 to 100 scale), Galium” value [20, 31] was 70, the “Ryegrass, Italian plant response rating” value [21, 30] was 0 and the “Plant response rating (0 to 100 scale), Ryegrass, Italian” value [21, 31] was 0. The “Goosegrass plant response rating” value [22, 30] was 0, the “Plant response rating (0 to 100 scale), Goosegrass” value [22, 31] was 0 and the “Horseweed plant response rating” value [23, 30] was 0. The “Plant response rating (0 to 100 scale), Horseweed” value [23, 31] was 0, the “Corn plant response rating” value [24, 30] was 0 and the “Plant response rating (0 to 100 scale), Corn” value [24, 31] was 0. The “Blackgrass plant response rating” value [25] was 0, the “Plant response rating, Ducksalad” value [26] was 0 and the “Plant response rating (0 to 100 scale), Blackgrass” value [27] was 0. The “Plant response rating (0 to 100 scale), Oat, Wild” value ([28]; 31 g ai/ha Preemergence) was 0, the “Plant response rating (0 to 100 scale), Oat, Wild” value ([28]; 125 g ai/ha Preemergence) was 0 and the “Plant response rating (0 to 100 scale), Soybean” value ([29]; 31 g ai/ha Preemergence) was 0. For the same molecule, the “Plant response rating (0 to 100 scale), Soybean” value ([29]; 125 g ai/ha Preemergence) was 30.
